Measured values published in patent US20210161997A1, “TREATING DISEASES VIA TARGETED MODULATION OF GENE SIGNALING NETWORKS” (Camp4 Therapeutics Corporation, priority 2018, published 2021).

What was measured:
SLC37A4 = experiment: RNA-seq of SLC37A4 expression in compound-treated primary human hepatocytes; assay type: cell-based
Method: Human hepatocytes were obtained from two donors from Massachusetts General Hospital, namely MGH54 and MGH63, and one donor from Lonza, namely HUM4111B. Cryopreserved hepatocytes were cultured in plating media for 16 hours, transferred to maintenance media for 4 hours. Cultured on serum-free media for 2 hours, then a compound was added. The hepatocytes were maintained on the serum-free media for 16 hours prior to gene expression analysis. Primary human hepatocytes were stored in the vapor phase of a liquid nitrogen freezer (about −130° C.).
Human hepatocytes cultured as described above were plated in 24-well format, adding 375,000 cells per well in a volume of 500 ul plating medium. Four hours before treatment, cells were washed with PBS and the medium was changed to either: fresh maintenance medium (complete) or modified maintenance medium.
Compound stocks were prepared at 1000× final concentration and added in a 2-step dilution to the medium to reduce risk of a compound precipitating out of solution when added to the cells, and to ensure reasonable pipetting volumes. One at a time, each compound was first diluted 10-fold in warm (about 37° C.) modified maintenance medium (initial dilution=ID), mixed by vortexing, and the ID was diluted 100-fold into the cell culture (e.g. 5.1 ul into 1 well of a 24-well plate containing 0.5 mL medium). The plate was mixed by carefully swirling and after all wells were treated and returned to the incubator overnight. If desired, separate plates/wells were treated with vehicle-only controls and/or positive controls. If using multi-well plates, controls were included on each plate. After about 18 hours, cells were harvested for further analysis, e.g., ChIP-seq, RNA-seq, ATAC-seq, etc.
This protocol is a modified version of the following protocols: MagMAX mirVana Total RNA Isolation Kit User Guide (Applied Biosystems #MAN0011131 Rev B.0), NEBNext Poly(A) mRNA Magnetic Isolation Module (E7490), and NEBNext Ultra Directional RNA Library Prep Kit for Illumina (E7420) (New England Biosystems #E74901).
The MagMAX mirVana kit instructions (the section titled “Isolate RNA from cells” on pages 14-17) were used for isolation of total RNA from cells in culture. Two hundred μl of Lysis Binding Mix was used per well of the multiwell plate containing adherent cells (usually a 24-well plate).
For mRNA isolation and library prep, the NEBNext Poly(A) mRNA Magnetic Isolation Module and Directional Prep kit was used. RNA isolated from cells above was quantified, and prepared in […] of each sample in 50 μl of nuclease-free water. This protocol may be run in microfuge tubes or in a 96-well plate.
All pass filter reads from each sample were mapped against the human genome (assembly GRCh38/GCA_000001405.15 “no alt” analysis set merged with hs38d1/GCA_000786075.2) using two pass mapping via STAR version 2.5.3a (alignment parameters alignIntronMin=20; alignIntronMax=1000000; outFilterMismatchNmax=999; outFilterMismatchNoverLmax=0.05; outFilterType=BySJout; outFilterMultimapNmax=20; alignSJoverhangMin=8; alignSJDBoverhangMin=1; alignMatesGapMax=1000000) (Dobin et al., Bioinformatics (2012) 29(1):15-21). Genomic alignments were converted to transcriptome alignments based on reference transcript annotations from the Human GENCODE Gene Set release 24 (Harrow et al., Genome Res. (2012) 22(9): 1760-1774). Using unique and multimapped transcriptomic alignments, gene-level abundance estimates were computed using RSEM version 1.3.0 (Li and Dewey, BMC Bioinformatics (2011) 12:323) in a strand-aware manner, and including confidence interval sampling calculations, to arrive at posterior mean estimates (PME) of abundances (counts and normalized FPKM—fragments per kilobase of exon per million mapped fragments) from the underlying Bayesian model. Standard QC were applied (read integrity, mapping statistics, library complexity, fragment bias) to remove unsatisfactory samples.

SERPINC1 = experiment: RNA-seq of SERPINC1 expression in compound-treated primary human hepatocytes; assay type: cell-based; conditions: significance FPKM ≥1, log 2(fold change) ≥0.5, q-value ≤0.05
Method: Human hepatocytes were obtained from two donors from Massachusetts General Hospital, namely MGH54 and MGH63, and one donor from Lonza, namely HUM4111B. Cryopreserved hepatocytes were cultured in plating media for 16 hours, transferred to maintenance media for 4 hours. Cultured on serum-free media for 2 hours, then a compound was added. The hepatocytes were maintained on the serum-free media for 16 hours prior to gene expression analysis. Primary human hepatocytes were stored in the vapor phase of a liquid nitrogen freezer (about -130° C.). Human hepatocytes cultured as described above were plated in 24-well format, adding 375,000 cells per well in a volume of 500 ul plating medium. Four hours before treatment, cells were washed with PBS and the medium was changed to either: fresh maintenance medium (complete) or modified maintenance medium. Compound stocks were prepared at 1000× final concentration and added in a 2-step dilution to the medium to reduce risk of a compound precipitating out of solution when added to the cells, and to ensure reasonable pipetting volumes. […] The plate was mixed by carefully swirling and after all wells were treated and returned to the incubator overnight. If desired, separate plates/wells were treated with vehicle-only controls and/or positive controls. If using multi-well plates, controls were included on each plate. After about 18 hours, cells were harvested for further analysis, e.g., ChIP-seq, RNA-seq, ATAC-seq, etc. This protocol is a modified version of the following protocols: MagMAX mirVana Total RNA Isolation Kit User Guide (Applied Biosystems #MAN0011131 Rev B.0), NEBNext Poly(A) mRNA Magnetic Isolation Module ([…]), and NEBNext Ultra Directional RNA Library Prep Kit for Illumina ([…]) (New England Biosystems #E74901). […] Two hundred μl of Lysis Binding Mix was used per well of the multiwell plate containing adherent cells (usually a 24-well plate). For mRNA isolation and library prep, the NEBNext Poly(A) mRNA Magnetic Isolation Module and Directional Prep kit was used. RNA isolated from cells above was quantified, and prepared in […] of each sample in 50 μl of nuclease-free water. This protocol may be run in microfuge tubes or in a 96-well plate. […] Genomic alignments were converted to transcriptome alignments based on reference transcript annotations from the Human GENCODE Gene Set release 24 (Harrow et al., Genome Res. […] Using unique and multimapped transcriptomic alignments, gene-level abundance estimates were computed using RSEM version 1.3.0 (Li and Dewey, BMC Bioinformatics (2011) 12:323) in a strand-aware manner, and including confidence interval sampling calculations, to arrive at posterior mean estimates (PME) of abundances (counts and normalized FPKM-fragments per kilobase of exon per million mapped fragments) from the underlying Bayesian model. Standard QC were applied (read integrity, mapping statistics, library complexity, fragment bias) to remove unsatisfactory samples. Differential gene expression was computed using the negative binomial model implemented by DESeq2 version 1.16.1 (Love et al., Genome Biol. (2014) 15(12):550). […] RNA-seq signals were also normalized by read depth and visualized using the UCSC browser. To identify small molecules that modulate target gene expression, primary human hepatocytes were prepared as a monoculture, and at least one small molecule compound was applied to the cells. RNA-seq was performed to determine the effects of the compounds on the expression of the target genes in hepatocytes. Fold change was calculated by dividing the level of expression in the cell system that had been perturbed by the level of expression in an unperturbed system.

Compound	SLC37A4 Fold Change (Log2) (SLC37A4)	SERPINC1 Fold Change (Log2) (SERPINC1)
S=C(NCc1ccc2c(c1)OCO2)N1CCN(c2ncnc3c2oc2ccccc23)CC1 [Amuvatinib]	0.97	1.33
O=C1CCC(N2C(=O)c3ccccc3C2=O)C(=O)N1 (stereo not shown) [Thalidomide]	0.64	0.88
